Laboratory results: the supplement of paper PMC13380429

What was measured:
Settings in all cases: 72 h
Calu-3 [1] = assay: drug sensitivity score (DSS) for viability; higher = more toxic; extreme values may be limits of the assay
Vero E6 [2] = assay: as above
HepG2 [3] = assay: as above
U2OS [4] = assay: as above
Caco-2 [5] = assay: as above
Calu-3 [6] = assay: relative viability EC50 (midpoint between 100% and the lowest measured viability); higher = less toxic
Vero E6 [7] = assay: as above
U2OS [8] = assay: as above
Calu-3 [9] = assay: cell viability relative to DMSO; higher = less toxic
Vero E6 [10] = assay: as above
HepG2 [11] = assay: as above
U2OS [12] = assay: as above
Caco-2 [13] = assay: as above
HepG2 [14] = assay: relative viability EC50 (midpoint between 100% and the lowest measured viability); higher = less toxic
Caco-2 [15] = assay: as above

| SMILES | drug sensitivity score (Calu-3 [1]) | drug sensitivity score (Vero E6 [2]) | drug sensitivity score (HepG2 [3]) | drug sensitivity score (U2OS [4]) | drug sensitivity score (Caco-2 [5]) | relative viability EC50 (Calu-3 [6]) [µM] | relative viability EC50 (Vero E6 [7]) [µM] | relative viability EC50 (U2OS [8]) [µM] | cell viability (Calu-3 [9]; 1 nM) [%] | cell viability (Calu-3 [9]; 10 nM) [%] | cell viability (Calu-3 [9]; 100 nM) [%] | cell viability (Calu-3 [9]; 1000 nM) [%] | cell viability (Calu-3 [9]; 10000 nM) [%] | cell viability (Vero E6 [10]; 1 nM) [%] | cell viability (Vero E6 [10]; 10 nM) [%] | cell viability (Vero E6 [10]; 100 nM) [%] | cell viability (Vero E6 [10]; 1000 nM) [%] | cell viability (Vero E6 [10]; 10000 nM) [%] | cell viability (HepG2 [11]; 1 nM) [%] | cell viability (HepG2 [11]; 10 nM) [%] | cell viability (HepG2 [11]; 100 nM) [%] | cell viability (HepG2 [11]; 1000 nM) [%] | cell viability (HepG2 [11]; 10000 nM) [%] | cell viability (U2OS [12]; 1 nM) [%] | cell viability (U2OS [12]; 10 nM) [%] | cell viability (U2OS [12]; 100 nM) [%] | cell viability (U2OS [12]; 1000 nM) [%] | cell viability (U2OS [12]; 10000 nM) [%] | cell viability (Caco-2 [13]; 1 nM) [%] | cell viability (Caco-2 [13]; 10 nM) [%] | cell viability (Caco-2 [13]; 100 nM) [%] | cell viability (Caco-2 [13]; 1000 nM) [%] | cell viability (Caco-2 [13]; 10000 nM) [%] | relative viability EC50 (HepG2 [14]) [µM] | relative viability EC50 (Caco-2 [15]) [µM] |
| --- | --- | --- | --- | --- | --- | --- | --- | --- | --- | --- | --- | --- | --- | --- | --- | --- | --- | --- | --- | --- | --- | --- | --- | --- | --- | --- | --- | --- | --- | --- | --- | --- | --- | --- | --- |
| CC(C)/N=c1\cc2n(-c3ccc(Cl)cc3)c3ccccc3nc-2cc1Nc1ccc(Cl)cc1 [clofazimine] | 0 | 0 | 1.9 | 0 | 3.8 | > 10 | > 10 | > 10 | 101 | 97.6 | 91.3 | 98.1 | 94.4 | 101 | 99.6 | 103 | 104 | 91.3 | 94.1 | 105 | 89.8 | 97 | 68.3 | 98 | 100 | 101 | 98.1 | 91.6 | 106 | 101 | 98.3 | 84.5 | 60.4 |  |  |
| CN(C)CCOC(=O)C(c1ccccc1)C1(O)CCCC1 (stereo not given) [cyclopentolate] |  | 0 | 0 | 0 | 0 |  | > 10 | > 10 |  |  |  |  |  | 99.1 | 103 | 102 | 101 | 107 | 103 | 115 | 97.6 | 111 | 91.3 | 100 | 96.5 | 98.4 | 97.9 | 98.5 | 96.9 | 97.6 | 93 | 100 | 102 | > 10 | > 10 |
| Oc1cc(O)c2cc(O)c(-c3cc(O)c(O)c(O)c3)[o+]c2c1 [delphinidin] |  | 0 | 0 | 0 | 0.5 |  | > 10 | > 10 |  |  |  |  |  | 100 | 98.8 | 98.3 | 92.7 | 97.9 | 104 | 102 | 103 | 114 | 96.5 | 103 | 104 | 98.1 | 102 | 99.2 | 101 | 95.5 | 90.8 | 94.6 | 83.4 | > 10 | > 10 |
| O=c1c2ccccc2[se]n1-c1ccccc1 [ebselen] | 0 | 0 |  | 0 | 0 | > 10 | > 10 | > 10 | 107 | 93.5 | 91.3 | 87.6 | 111 | 96.4 | 98.5 | 99.4 | 97.6 | 104 |  |  |  |  |  | 97.4 | 98.7 | 105 | 97.4 | 102 | 88 | 102 | 107 | 88.5 | 100 |  | > 10 |
| COc1ccc([C@@H]2CC(=O)c3c(O)cc(O)cc3O2)cc1O [hesperetin] | 0.1 | 0 |  | 0 | 0 | > 10 | > 10 | > 10 | 102 | 93.7 | 102 | 93 | 89.2 | 94.9 | 98.7 | 98.9 | 90.1 | 108 |  |  |  |  |  | 104 | 96.3 | 97.1 | 99.8 | 102 | 104 | 88.5 | 92.7 | 104 | 98.4 |  | > 10 |
| O=C1N[C@@H]2[C@@H](O)[C@@H](O)[C@H](O)[C@@H](CO)N2C1=O [kifunensine] | 0 | 0.3 | 0.5 | 0 | 4.8 | > 10 | > 10 | > 10 | 100 | 106 | 103 | 90.7 | 93 | 107 | 89.7 | 96.2 | 94.5 | 84.2 | 95.6 | 103 | 99.4 | 98.7 | 82.6 | 104 | 102 | 96.2 | 97.4 | 99 | 98.5 | 105 | 91.8 | 75.1 | 67.5 | > 10 |  |
| COc1ccc(CN(CCN(C)C)c2ccccn2)cc1 [mepyramine] | 0 | 0 | 0 | 0 |  | > 10 | > 10 | > 10 | 101 | 113 | 112 | 106 | 93 | 95.7 | 93.1 | 95.1 | 98.5 | 102 | 99.8 | 95.7 | 91 | 102 | 92.8 | 98 | 99.8 | 103 | 101 | 95.9 |  |  |  |  |  | > 10 |  |
| CN(Cc1cnc2nc(N)nc(N)c2n1)c1ccc(C(=O)N[C@@H](CCC(=O)O)C(=O)O)cc1 [methotrexate] | 0 | 16.1 | 14 | 0 | 6.1 | > 10 | 0.284 | > 10 | 104 | 94.3 | 93.9 | 95.8 | 96.5 | 103 | 99.1 | 96.1 | 14.7 | 14.3 | 94.3 | 103 | 105 | 21.8 | 18.6 | 103 | 98.2 | 98 | 92.1 | 97.2 | 98.3 | 99.6 | 97.6 | 67.1 | 66 | 0.379 |  |
| CCCOc1ccc(S(=O)(=O)N2CCN(CCO)CC2)cc1-c1nc2c(CCC)cn(CC)c2c(=O)[nH]1 [mirodenafil] |  | 0 | 0 | 0 | 0.1 |  | > 10 | > 10 |  |  |  |  |  | 100 | 101 | 101 | 94.9 | 102 | 105 | 98.1 | 108 | 100 | 99.7 | 102 | 104 | 99.6 | 103 | 96.3 | 105 | 111 | 96.5 | 107 | 85.6 | > 10 | > 10 |
| CNCCC=C1c2ccccc2CCc2ccccc21 [nortriptyline] | 0.9 | 1.6 | 1 | 0 | 1.6 | > 10 | > 10 | > 10 | 100 | 98.7 | 99.4 | 96.5 | 82.1 | 106 | 106 | 102 | 90 | 79.8 | 110 | 106 | 112 | 119 | 65 | 99.5 | 96.8 | 98.1 | 97.4 | 93.8 | 108 | 86.1 | 96.4 | 97.7 | 70 |  |  |
| C=CC(=O)Nc1cccc(Oc2nc(Nc3ccc(N4CCN(C)CC4)cc3)nc3ccsc23)c1 [olmutinib] | 8.3 | 6.5 | 2.6 | 3.2 | 3.2 | 1.35 | 2.49 |  | 110 | 105 | 89 | 68.4 | 14.8 | 100 | 98.7 | 96.7 | 92.2 | 5.1 | 95 | 93.5 | 100 | 99.6 | 51 | 100 | 101 | 96.6 | 92.7 | 59.4 | 99.2 | 98.3 | 90.9 | 83.5 | 69 |  |  |
| CC(=O)OC/C=C(C)/C=C/C=C(C)/C=C/C1=C(C)CCCC1(C)C [retinyl-acetate] | 0 | 0 |  |  | 0 | > 10 | > 10 |  | 93.7 | 90.4 | 112 | 90.7 | 93.3 | 103 | 103 | 102 | 98 | 102 |  |  |  |  |  |  |  |  |  |  | 112 | 99 | 104 | 95.9 | 114 |  | > 10 |
| CC[C@H]1OC(=O)C[C@@H](O)[C@H](C)[C@@H](O[C@@H]2O[C@H](C)C[C@H](N(C)C)[C@H]2O)[C@@H](CC=O)C[C@@H](C)C(=O)/C=C/[C@]2(C)O[C@H]2[C@@H]1C [rosamicin] | 0 | 0 | 3.7 | 3.5 | 1.2 | > 10 | > 10 | 3.09 | 101 | 84.5 | 101 | 107 | 87.2 | 94.7 | 102 | 92.9 | 97 | 90.9 | 87 | 106 | 98.4 | 103 | 28.9 | 100 | 94.2 | 98.8 | 99.4 | 37.1 | 94.6 | 102 | 101 | 100 | 71.5 | 3.41 |  |
| COc1cc(C[C@@H](CO)[C@H](CO)Cc2ccc(O)c(OC)c2)ccc1O [secoisolariciresinol-(-)] | 0 | 0 |  | 0 | 0 | > 10 | > 10 | > 10 | 98.7 | 102 | 107 | 91.9 | 92.4 | 113 | 110 | 98.6 | 97.3 | 99.3 |  |  |  |  |  | 100 | 99.1 | 98.7 | 104 | 93.8 | 94.7 | 102 | 87.6 | 93 | 94.7 |  | > 10 |
| Cn1nnc(-c2ccc(-c3ccc(N4C[C@H](COP(=O)(O)O)OC4=O)cc3F)cn2)n1 [tedizolid-phosphate] | 0.9 | 0.2 | 6.1 | 0 | 0.8 | > 10 | > 10 | > 10 | 102 | 103 | 114 | 86.1 | 97.6 | 98.5 | 101 | 97.9 | 89.3 | 89.8 | 106 | 96.9 | 91 | 71.7 | 53.1 | 98.8 | 98.5 | 97.1 | 93.8 | 93.4 | 108 | 97.8 | 94.2 | 87.3 | 87.9 |  | > 10 |
| Cc1cc2cc3c(C)cc(=O)oc3c(C)c2o1 [trioxsalen] | 0 | 0 | 2.9 | 0 | 1 | > 10 | > 10 | > 10 | 105 | 96.3 | 106 | 120 | 108 | 97.4 | 96 | 99.5 | 97.5 | 96.3 | 104 | 88.8 | 94.7 | 86.1 | 65.8 | 103 | 105 | 101 | 106 | 99.6 | 111 | 99.6 | 91.3 | 92.4 | 80.5 |  | > 10 |
